Assay results reported in patent publication US8822517B2, “Arylosulfonamides for the treatment of CNS diseases” (Adamed SP. Z O.O., priority 2010, dated 2014).

Key:
[1] = target: T1, serotonine transporter (SERT) receptor (Homo sapiens, UniProt P31645); test: Binding assay SERT (h), [3H]imipramine, CHO cells; conditions: read-out: SERT [%]
T1 construct: expressed in transfected cells; host or cells: CHO cells
Method in brief: (§1)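 At 1×10^−6 M, compounds were assessed for their effect on specific radioligand binding, computed as total less nonspecific binding (excess unlabelled ligand present).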

[2] = system: adrenergic α1 receptor; test: Binding assay α1 (non-selective), [3H]prazosin, rat cerebral cortex; conditions: percent inhibition of control specific binding; compounds tested at 1×10^−6 M
Method in brief: as §1

[3] = target: dopaminergic D3 receptor (Homo sapiens, UniProt P35462); test: Binding assay D3 (h), [3H]methyl-spiperone, CHO cells; set-up: expressed in transfected cells; host or cells: CHO cells; conditions: read-out: D3 [%]
Sequence of dopaminergic D3 receptor (P35462 whole entry): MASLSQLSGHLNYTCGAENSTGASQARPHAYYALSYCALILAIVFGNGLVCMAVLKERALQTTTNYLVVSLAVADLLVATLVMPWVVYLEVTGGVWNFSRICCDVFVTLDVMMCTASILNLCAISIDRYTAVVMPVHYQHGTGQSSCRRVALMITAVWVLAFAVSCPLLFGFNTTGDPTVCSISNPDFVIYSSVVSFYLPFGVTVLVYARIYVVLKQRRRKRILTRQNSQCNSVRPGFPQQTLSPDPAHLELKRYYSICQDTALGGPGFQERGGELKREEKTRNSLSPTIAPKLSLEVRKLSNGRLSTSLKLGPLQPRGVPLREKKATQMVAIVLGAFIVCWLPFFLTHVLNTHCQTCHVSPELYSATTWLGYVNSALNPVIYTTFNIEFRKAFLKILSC
Method in brief: as §1

[4] = target: serotoninergic 5-HT6 receptor (Homo sapiens, UniProt P50406); test: Binding assay 5-HT6 (h), [3H]LSD, CHO cells; set-up: expressed in transfected cells; host or cells: CHO cells; conditions: read-out: 5-HT6
Sequence of serotoninergic 5-HT6 receptor (P50406 whole entry): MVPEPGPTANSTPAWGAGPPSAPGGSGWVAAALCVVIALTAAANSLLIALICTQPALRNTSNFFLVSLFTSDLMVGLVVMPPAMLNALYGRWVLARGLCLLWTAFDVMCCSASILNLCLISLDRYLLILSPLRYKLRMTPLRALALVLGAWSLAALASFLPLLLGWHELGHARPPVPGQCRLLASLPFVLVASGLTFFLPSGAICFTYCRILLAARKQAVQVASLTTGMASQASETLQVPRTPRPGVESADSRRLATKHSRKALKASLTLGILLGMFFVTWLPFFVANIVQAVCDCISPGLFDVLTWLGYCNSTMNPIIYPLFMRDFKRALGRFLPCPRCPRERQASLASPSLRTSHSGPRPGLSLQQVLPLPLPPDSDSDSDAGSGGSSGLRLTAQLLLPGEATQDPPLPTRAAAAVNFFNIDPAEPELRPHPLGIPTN
Method in brief: as §1

[5] = target: serotoninergic 5-HT7 receptor (Homo sapiens, UniProt P34969); test: Binding assay 5-HT7 (h), [3H]LSD, CHO cells; set-up: expressed in transfected cells; host or cells: CHO cells; conditions: read-out: 5-HT7
Sequence of serotoninergic 5-HT7 receptor (P34969 whole entry): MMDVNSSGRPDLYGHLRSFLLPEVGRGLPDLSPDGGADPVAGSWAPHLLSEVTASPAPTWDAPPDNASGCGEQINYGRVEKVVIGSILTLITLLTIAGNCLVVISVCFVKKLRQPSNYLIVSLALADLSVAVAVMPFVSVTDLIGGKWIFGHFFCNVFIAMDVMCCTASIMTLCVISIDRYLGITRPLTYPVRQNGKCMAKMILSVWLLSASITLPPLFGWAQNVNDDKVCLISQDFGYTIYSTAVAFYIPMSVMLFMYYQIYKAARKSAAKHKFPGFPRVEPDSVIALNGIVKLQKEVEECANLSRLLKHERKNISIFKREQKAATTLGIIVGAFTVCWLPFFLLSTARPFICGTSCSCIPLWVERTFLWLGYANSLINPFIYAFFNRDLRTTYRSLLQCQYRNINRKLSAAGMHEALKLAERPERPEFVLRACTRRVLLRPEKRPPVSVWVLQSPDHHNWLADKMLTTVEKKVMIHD
Method in brief: as §1

[6] = target: dopaminergic D2 receptor (Homo sapiens, UniProt P14416); test: Binding assay D2S (h), [3H]methyl-spiperone, HEK-293 cells; set-up: expressed in transfected cells; host or cells: HEK-293 cells; conditions: read-out: D2 [%]
Sequence of dopaminergic D2 receptor (P14416 1-414 isoform P14416-2): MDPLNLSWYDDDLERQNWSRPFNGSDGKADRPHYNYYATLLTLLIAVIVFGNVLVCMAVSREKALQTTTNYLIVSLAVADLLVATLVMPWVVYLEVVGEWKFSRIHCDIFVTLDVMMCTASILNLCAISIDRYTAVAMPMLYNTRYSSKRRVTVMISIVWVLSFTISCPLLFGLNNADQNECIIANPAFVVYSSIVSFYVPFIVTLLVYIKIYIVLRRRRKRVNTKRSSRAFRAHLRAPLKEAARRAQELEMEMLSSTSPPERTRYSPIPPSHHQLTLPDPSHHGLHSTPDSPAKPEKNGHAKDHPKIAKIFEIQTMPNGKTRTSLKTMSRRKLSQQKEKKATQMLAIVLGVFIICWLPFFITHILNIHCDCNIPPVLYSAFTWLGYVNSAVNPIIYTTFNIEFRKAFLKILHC
Method in brief: as §1

[7] = target: T2, serotoninergic 5-HT1A receptor (Homo sapiens, UniProt P08908); test: Binding assay 5-HT1A (h), [3H]8-OH-DPAT, HEK-293 cells; set-up: expressed in transfected cells; host or cells: HEK-293 cells; conditions: read-out: 5-HT1A
T2 sequence (P08908 1-422): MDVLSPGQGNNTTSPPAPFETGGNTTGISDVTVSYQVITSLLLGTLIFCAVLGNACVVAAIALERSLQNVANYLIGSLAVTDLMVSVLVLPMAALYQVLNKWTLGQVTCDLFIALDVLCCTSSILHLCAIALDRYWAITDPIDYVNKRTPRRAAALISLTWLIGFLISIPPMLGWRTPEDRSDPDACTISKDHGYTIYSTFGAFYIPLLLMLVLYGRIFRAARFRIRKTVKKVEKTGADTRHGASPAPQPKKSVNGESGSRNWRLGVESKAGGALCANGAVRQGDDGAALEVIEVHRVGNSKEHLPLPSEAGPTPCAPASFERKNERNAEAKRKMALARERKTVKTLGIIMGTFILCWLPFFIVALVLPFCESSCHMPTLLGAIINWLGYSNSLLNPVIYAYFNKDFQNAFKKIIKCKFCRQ
Method in brief: as §1

[8] = target: serotoninergic 5-HT2A receptor (Homo sapiens, UniProt P28223); test: Binding assay 5-HT2A (h), [3H]ketanserin, HEK-293 cells; set-up: expressed in transfected cells; host or cells: HEK-293 cells; conditions: read-out: 5-HT2A
Sequence of serotoninergic 5-HT2A receptor (P28223 whole entry): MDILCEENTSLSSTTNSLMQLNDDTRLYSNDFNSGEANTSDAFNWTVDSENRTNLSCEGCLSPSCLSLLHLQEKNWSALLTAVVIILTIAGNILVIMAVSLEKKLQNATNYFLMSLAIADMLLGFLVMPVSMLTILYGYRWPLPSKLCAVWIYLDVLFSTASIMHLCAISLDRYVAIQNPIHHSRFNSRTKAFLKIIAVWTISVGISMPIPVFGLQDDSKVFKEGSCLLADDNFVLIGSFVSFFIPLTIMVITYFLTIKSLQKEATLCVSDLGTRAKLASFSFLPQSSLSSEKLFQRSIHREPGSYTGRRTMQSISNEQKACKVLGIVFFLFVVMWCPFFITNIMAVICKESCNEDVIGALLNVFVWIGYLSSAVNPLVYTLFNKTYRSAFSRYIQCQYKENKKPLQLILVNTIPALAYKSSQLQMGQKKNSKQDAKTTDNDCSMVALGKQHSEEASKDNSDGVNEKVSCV
Method in brief: as §1

T1 sequence (P31645 whole entry): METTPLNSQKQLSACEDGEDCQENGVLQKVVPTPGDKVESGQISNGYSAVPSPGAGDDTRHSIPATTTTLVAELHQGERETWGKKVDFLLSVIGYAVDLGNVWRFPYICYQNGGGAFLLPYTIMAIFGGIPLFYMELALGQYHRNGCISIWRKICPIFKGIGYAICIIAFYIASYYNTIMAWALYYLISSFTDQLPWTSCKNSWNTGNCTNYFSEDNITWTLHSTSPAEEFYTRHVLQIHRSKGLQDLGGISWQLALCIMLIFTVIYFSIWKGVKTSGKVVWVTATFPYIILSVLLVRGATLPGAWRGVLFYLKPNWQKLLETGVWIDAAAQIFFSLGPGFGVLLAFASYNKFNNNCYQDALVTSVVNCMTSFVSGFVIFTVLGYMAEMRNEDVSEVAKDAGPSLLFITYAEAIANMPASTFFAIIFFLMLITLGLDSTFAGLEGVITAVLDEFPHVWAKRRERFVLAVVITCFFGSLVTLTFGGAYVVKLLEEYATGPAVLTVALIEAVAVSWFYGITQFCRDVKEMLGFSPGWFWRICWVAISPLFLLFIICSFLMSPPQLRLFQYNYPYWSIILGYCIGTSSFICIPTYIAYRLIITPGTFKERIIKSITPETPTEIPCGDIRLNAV

Compound | inhibition at 1 µM [1] [%] | α1 [%] [2] [%] | inhibition at 1 µM [3] [%] | inhibition at 1 µM [4] [%] | inhibition at 1 µM [5] [%] | inhibition at 1 µM [6] [%] | inhibition at 1 µM [7] [%] | inhibition at 1 µM [8] [%]
O=S(=O)(NCCCCN1CCN(c2cccc3c2OCCO3)CC1)c1ccc(-c2ccccc2)cc1 [Compound 396, N-[4-[4-(2,3-Dihydro-1,4-benzodioxin-5-yl)piperazin-1-yl]butyl]-4-phenylbenzenesulphonamide] | 16 | 84 | 86 | 31 | 88 | 68 | 85 | 58
O=S(=O)(NCCCCN1CCN(c2cccc3c2OCCO3)CC1)c1ccc(Cl)s1 [Compound 398, 5-Chloro-N-[4-[4-(2,3-dihydro-1,4-benzodioxin-5-yl)piperazin-1-yl]butyl]thiophene-2-sulphonamide] | -7 | 97 | 90 | 3 | 97 | 73 | 107 | 38
O=S(=O)(NCCCCN1CCN(c2cccc3c2OCCO3)CC1)c1cc2ccccc2s1 [Compound 399, N-[4-[4-(2,3-Dihydro-1,4-benzodioxin-5-yl)piperazin-1-yl]butyl]benzothiophene-2-sulphonamide] | -22 | 99 | 92 | 23 | 96 | 79 | 99 | 82
O=S(=O)(NCCCCN1CCN(c2cccc3c2OCCO3)CC1)c1csc2ccccc12 [Compound 400, N-[4-[4-(2,3-Dihydro-1,4-benzodioxin-5-yl)piperazin-1-yl]butyl]benzothiophene-3-sulphonamide] | 30 | 94 | 88 | 9 | 95 | 83 | 100 | 66
O=S(=O)(NCCCCN1CCN(c2cccc3c2OCCO3)CC1)c1cc2ccc(Cl)cc2s1 [Compound 401, 6-Chloro-N-[4-[4-(2,3-dihydro-1,4-benzodioxin-5-yl)piperazin-1-yl]butyl]benzothiophene-2-sulphonamide] | -8 | 90 | 95 | 27 | 91 | 84 | 103 | 79
O=S(=O)(NCCCCN1CCN(c2cccc3c2OCCO3)CC1)c1ccc2cn[nH]c2c1 [Compound 402, N-[4-[4-(2,3-Dihydro-1,4-benzodioxin-5-yl)piperazin-1-yl]butyl]-1H-indazole-6-sulphonamide] | 16 | 94 | 89 | 1 | 100 | 68 | 102 | 76
O=c1[nH]c2ccc(S(=O)(=O)NCCCCN3CCN(c4cccc5c4OCCO5)CC3)cc2o1 [Compound 403, N-[4-[4-(2,3-Dihydro-1,4-benzodioxin-5-yl)piperazin-1-yl]butyl]-2-oxo-3H-1,3-benzoxazole-6-sulphonamide] | -9 | 98 | 99 | -21 | 95 | 85 | 98 | 64
O=S(=O)(NCCCCN1CCN(c2cccc3c2OCCO3)CC1)c1ccc2c(c1)OCO2 [Compound 404, N-[4-[4-(2,3-Dihydro-1,4-benzodioxin-5-yl)piperazin-1-yl]butyl]-1,3-benzodioxole-5-sulphonamide] | -9 | 93 | 92 | 4 | 96 | 60 | 97 | 55
O=S(=O)(NCCCN1CCN(c2cccc3c2OCCO3)CC1)c1cccc2ccccc12 [Compound 405, N-[3-[4-(2,3-Dihydro-1,4-benzodioxin-5-yl)piperazin-1-yl]propyl]naphthalene-1-sulphonamide] | -5 | 82 | 62 | 53 | 93 | 68 | 97 | 74
O=S(=O)(NCCCN1CCN(c2cccc3c2OCCO3)CC1)c1ccc2ccccc2c1 [Compound 406, N-[3-[4-(2,3-Dihydro-1,4-benzodioxin-5-yl)piperazin-1-yl]propyl]naphthalene-2-sulphonamide] | 10 | 77 | 54 | 54 | 92 | 59 | 99 | 28
O=S(=O)(NCCCN1CCN(c2cccc3c2OCCO3)CC1)c1ccc2cc(Cl)ccc2c1 [Compound 407, 6-Chloro-N-[3-[4-(2,3-dihydro-1,4-benzodioxin-5-yl)piperazin-1-yl]propyl]naphthalene-2-sulphonamide] | -2 | 72 | 84 | 37 | 102 | 58 | 88 | 50
O=S(=O)(NCCCN1CCN(c2cccc3c2OCCO3)CC1)c1ccc(F)cc1 [Compound 408, N-[3-[4-(2,3-Dihydro-1,4-benzodioxin-5-yl)piperazin-1-yl]propyl]-4-fluorobenzenesulphonamide] | -18 | 70 | 70 | 35 | 83 | 40 | 101 | -50
O=S(=O)(NCCCN1CCN(c2cccc3c2OCCO3)CC1)c1cccc(F)c1 [Compound 409, N-[3-[4-(2,3-Dihydro-1,4-benzodioxin-5-yl)piperazin-1-yl]propyl]-3-fluorobenzenesulphonamide] | 2 | 81 | 85 | -9 | 91 | 79 | 81 | 66
O=S(=O)(NCCCN1CCN(c2cccc3c2OCCO3)CC1)c1cccc(Cl)c1 [Compound 411, 3-Chloro-N-[3-[4-(2,3-dihydro-1,4-benzodioxin-5-yl)piperazin-1-yl]propyl]benzenesulphonamide] | 12 | 87 | 52 | 41 | 89 | 40 | 95 | 4
Cc1cccc(S(=O)(=O)NCCCN2CCN(c3cccc4c3OCCO4)CC2)c1 [Compound 414, N-[3-[4-(2,3-Dihydro-1,4-benzodioxin-8-yl)piperazin-1-yl]propyl]-3-methylbenzenesulphonamide] | 18 | 88 | 81 | -15 | 94 | 48 | 98 | 76
O=S(=O)(NCCCN1CCN(c2cccc3c2OCCO3)CC1)c1ccc(-c2ccccc2)cc1 [Compound 415, N-[3-[4-(2,3-Dihydro-1,4-benzodioxin-5-yl)piperazin-1-yl]propyl]-4-phenylbenzenesulphonamide] | -5 | 78 | 76 | 15 | 92 | 58 | 96 | 25
O=S(=O)(NCCCN1CCN(c2cccc3c2OCCO3)CC1)c1csc2ccccc12 [Compound 416, N-[3-[4-(2,3-Dihydro-1,4-benzodioxin-5-yl)piperazin-1-yl]propyl]benzothiophene-3-sulphonamide] | -4 | 81 | 56 | 55 | 99 | 59 | 101 | 58
